# Like-named read-outs stand apart in the source and are kept apart here. Ends that are not written are not given here.
# Columns and labels:
# ACE = settings: cited from earlier work
# [1] = design: method as in Contreras et al. (2013) [21]; settings: ref Contreras et al. (2013) [21], cited from earlier work
# [2] = target: T1, angiotensin-I converting enzyme (ACE) (Oryctolagus cuniculus, UniProt P12822); test: ACE inhibitory activity (iACE), fluorometric assay; type: biochemical
# T1 construct: purchased Sigma-Aldrich
# T1 sequence (P12822 34-1310): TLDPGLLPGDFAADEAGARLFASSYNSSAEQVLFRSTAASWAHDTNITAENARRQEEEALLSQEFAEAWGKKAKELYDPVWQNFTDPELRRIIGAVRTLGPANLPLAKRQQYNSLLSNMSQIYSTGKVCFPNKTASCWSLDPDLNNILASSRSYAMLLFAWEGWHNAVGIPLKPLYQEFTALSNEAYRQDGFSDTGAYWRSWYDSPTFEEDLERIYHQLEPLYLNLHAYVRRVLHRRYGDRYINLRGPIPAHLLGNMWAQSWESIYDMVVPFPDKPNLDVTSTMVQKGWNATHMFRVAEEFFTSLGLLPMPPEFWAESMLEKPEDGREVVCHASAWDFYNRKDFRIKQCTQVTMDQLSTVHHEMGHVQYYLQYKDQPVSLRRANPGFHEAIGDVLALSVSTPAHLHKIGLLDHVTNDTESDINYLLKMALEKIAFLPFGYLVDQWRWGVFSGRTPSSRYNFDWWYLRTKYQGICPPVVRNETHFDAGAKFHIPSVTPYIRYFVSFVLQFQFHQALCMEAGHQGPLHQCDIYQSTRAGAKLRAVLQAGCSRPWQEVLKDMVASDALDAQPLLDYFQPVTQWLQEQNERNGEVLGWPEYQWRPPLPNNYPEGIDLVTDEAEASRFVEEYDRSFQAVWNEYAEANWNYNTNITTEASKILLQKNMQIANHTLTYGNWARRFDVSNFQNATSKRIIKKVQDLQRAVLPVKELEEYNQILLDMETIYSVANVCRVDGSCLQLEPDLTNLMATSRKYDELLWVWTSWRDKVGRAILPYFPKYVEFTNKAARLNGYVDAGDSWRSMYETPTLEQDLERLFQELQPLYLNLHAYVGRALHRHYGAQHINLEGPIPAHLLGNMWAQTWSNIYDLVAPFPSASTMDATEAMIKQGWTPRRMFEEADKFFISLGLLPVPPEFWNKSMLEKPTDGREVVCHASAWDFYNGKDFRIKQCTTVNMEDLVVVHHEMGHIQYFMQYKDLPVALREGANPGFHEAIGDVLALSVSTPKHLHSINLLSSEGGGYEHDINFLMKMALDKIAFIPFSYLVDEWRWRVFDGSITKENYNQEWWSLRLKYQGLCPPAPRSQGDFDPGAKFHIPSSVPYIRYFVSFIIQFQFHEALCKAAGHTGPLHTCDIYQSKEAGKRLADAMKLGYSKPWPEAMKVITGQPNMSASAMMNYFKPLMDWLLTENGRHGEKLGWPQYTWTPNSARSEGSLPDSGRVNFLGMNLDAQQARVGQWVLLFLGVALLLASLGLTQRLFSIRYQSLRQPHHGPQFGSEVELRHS
# Description: The ACE inhibitory activity was carried out using the fluorometric assay described by Coscueta, Brassesco, and Pintado (2021). The iACE of each sample (raw peptide and digested) was evaluated in duplicate and expressed as the concentration capable of inhibiting 50% of the enzymatic activity (IC50). To calculate the IC50 values, non-linear modeling was used, and the results were expressed as μg mL^−1 to inhibit 50% of the enzymatic activity.
# Simulated gastrointestinal digestion was performed according to the method described by Madureira et al. (2011). Briefly, mouth digestion was mimicked by introducing the peptide sequence (2.5 mg/mL) into 15 mL of a 1 mM CaCl2 solution of 100 U mL^−1 α-amylase, under constant stirring (200 rpm) for 2 min at 37 °C, simulating masticatory movements. A 1 M NaHCO3 solution was used to adjust the pH of artificial saliva to 6.9. Subsequently, a pepsin solution, 25 mg/mL, was added with a ratio of 0.05 mL/mL of a sample at pH 2.0 (simulated gastric solution, stomach) following incubation for 2 h, 37 °C at 130 rpm orbital agitation for the gastric phase. Finally, intestinal digestion and absorption were simulated by adjusting pH values to […] using a 1 M NaHCO3 solution and adding a solution of bile salts and pancreatin to the digest.
# [3] = antihypertensive oligopeptides encoded in human β-casein
# [4] = antihypertensive oligopeptides encoded in various β-caseins
# [5] = whey-derived peptides, ref Tavares et al. (2011) [14]
# [6] = Digested (simulated gastrointestinal digestion, 50 µg mL^−1 in intestinal compartment)
substance,measurement,setting,value
VLPYP,IC50 (ACE),ACE; [3],21.1 µg/mL
NPPHQIYP [antihypertensive oligopeptide encoded in the human β-casein],IC50 (ACE),ACE; [3],35.7 µg/mL
RYLGY,change of antioxidant activity,[1]; after the digestion process,reduced
YQKFPQY [casein-derived peptide studied by Contreras et al. (2013)],change of antioxidant activity,[1]; after the digestion process,reduced
HQPPQPL [HQPPQPL],IC50,"[2]; Raw peptide, mean ± SD",> 3680 µM
PHQIYP,IC50 (ACE),ACE; [3],22.6 µg/mL
PAVVLP,IC50 (ACE),ACE; [3],26.8 µg/mL
HPFAQTQQSLVYP [antihypertensive oligopeptide encoded in various β-caseins],IC50 (ACE),ACE; [4],36.1 µg/mL
MHQPPQPL [MHQPPQPL],IC50,"[2]; Raw peptide, mean ± SD",> 3170 µM
DAQSAPLRVY,IC50 (ACE),ACE; [5],12.2 µg/mL
TVYTKGRVMP [antihypertensive oligopeptide encoded in the human β-casein],IC50 (ACE),ACE; [3],43.7 µg/mL
KGYGGVSLPEW,IC50 (ACE),ACE; [5],0.7 µg/mL
SLVYP,IC50 (ACE),ACE; [4],23.7 µg/mL
SWMHQPP [SWMHQPP],IC50,[2]; [6],> 56.7 µM
same,IC50,"[2]; Raw peptide, mean ± SD",253 µM
AYFYPEL [casein-derived peptide studied by Contreras et al. (2013)],antioxidant capacity,[1]; after the digestion process,4.160 ± 0.623 µmol TE µmol^−1 peptide
same,antioxidant capacity,[1]; before digestion,3.216 ± 0.114 µmol TE µmol^−1 peptide
VLPIP,IC50 (ACE),ACE; [3],16.7 µg/mL
VMP,IC50 (ACE),ACE; [3],10.0 µg/mL
FAQTQSLVYP [antihypertensive oligopeptide encoded in various β-caseins],IC50 (ACE),ACE; [4],28.8 µg/mL
YPYQGPIVL [YPYQGPIVL],IC50,[2]; [6],> 47.7 µM
same,IC50,"[2]; Raw peptide, mean ± SD",1060 µM
QSLVYPFTGPIPNSL [QSLVYPFTGPIPNSL],IC50,[2]; [6],> 30.6 µM
same,IC50,"[2]; Raw peptide, mean ± SD",> 1840 µM
LPQNILP [antihypertensive oligopeptide encoded in the human β-casein],IC50 (ACE),ACE; [3],36.5 µg/mL
DKVGINYW,IC50 (ACE),ACE; [5],25.4 µg/mL

# — PMC8910560, “Screening of Novel Bioactive Peptides from Goat Casein: In Silico to In Vitro Validation” (International Journal of Molecular Sciences, 2022)
